A short description of test [1]: Inhibition of collagen prolyl 4-hydroxylase (unknown origin). On the set-up: species or system Homo sapiens.
Test [2] can be described thus: Inhibition of collagen prolyl 4-hydroxylase (unknown origin) using 2-ketoglutarate as co-factor assessed as formation of [14C]succinate by ion-exchnage chromatographic method. Details: species or system Homo sapiens.
Test [3] in a line: Inhibition of chicken collagen prolyl 4-hydroxylase. On the set-up: species or system Gallus gallus.

Take `COc1ccc(S(=O)(=O)NC(=O)c2ccc(C(=O)O)nc2)cc1`: in test [1], the IC50 (commonly the concentration needed to halve the response being measured) stood at 1 µM. On to `C[C@@H](NC(=O)C(=O)O)C(=O)O`, for which the IC50 in test [2] was 621 µM. Regarding `C[C@H](NC(=O)C(=O)O)C(=O)O`, in test [2], the IC50 was 38.2 µM. Take `O=C(O)CNC(=O)C(=O)O` [N-OXALYLGLYCINE]: the IC50 in test [2] was found to be 2.89 µM. For `O=C(O)c1nnc2ccccc2c1O`, the half-maximal inhibitory concentration (IC50) in test [3] is 0.02 µM. Take `O=C(O)c1ccc(C(=O)O)nc1` [PYRIDINE-2,5-DICARBOXYLIC ACID]: in test [1], the concentration for half-maximal inhibition (IC50) is 5.5 µM. As to `CC(NC(=O)C(=O)O)C(=O)O` (racemic), the IC50 in test [2] came to 90.7 µM. In test [3], `O=C(O)c1ncc2ccccc2c1O` yielded an IC50 of 0.19 µM.

For the origin of these results see ChEMBL document CHEMBL4270540, “Collagen Prolyl 4-Hydroxylase as a Therapeutic Target” (J Med Chem, 2018).
